Reference: patent publication US20250283038A1, “COMPOUNDS INDUCING PRODUCTION OF PROTEINS BY IMMUNE CELLS” (UNIVERSITE PARIS CITE, priority 2022, published 2025)

System: human B cells
Test: IL-10 induction in human B cells cultivated with anti-IgM plus CpG, IL-10 measured in cell culture supernatants
Format: cell-based
Details: 2 consecutive days, molecule at 0.25 μM final concentration
Procedure: Human B cells isolated magnetically through negative selection (B Cell Isolation Kit II, human, Miltenyi ref: 130-091-151) were cultivated for 2 consecutive days in the presence of anti-IgM plus CpG in the presence of the indicated molecule (see table 3) at 0.25μM final concentration. IL-10 was measured in cell culture supernatants.
Human B cells isolated magnetically through negative selection (B Cell Isolation Kit II, human, Miltenyi ref: 130-091-151) were cultivated for 2 consecutive days in the presence of anti-IgM plus CpG in the presence of DMSO (as control) or in the presence of the tested molecules at 0.25 microM final concentration. IL-10 was measured in cell culture supernatants. NS: non stimulated B cell culture condition.

Substance: N-(2-(4-fluorophenyl)imidazo[1,2-a]pyridin-6-yl)-2-methoxybenzamide [Compound 217]
- II-10 Induction Mean (pg/mL) human: 2.06 pg/mL
